# Reference: patent US8975410B2, “Crystal forms of 5-[3-(2,5-dichloro-4, 6-dimethyl-1-oxy-pyridine-3-yl)[1,2,4] oxadiazol-5-yl]-3-nitrobenzene-1,2-diol” (BIAL—Portela & CA., S.A., priority 2008, dated 2015)
# How the values were obtained:
# [1] = about 5% to about 95% relative humidity at 25° C. over a period of 3 months
# [2] = interconversion experiments of the polymorphs; conditions: for stability class of the polymorph: conclusion from interconversion experiments
# [3] = drying under vacuum at ambient temperature or at 60° C.
Structure (SMILES),stability class of the polymorph [2],polymorph produced on drying [3],polymorphic conversion in interconversion experiments [2],other results
"Cc1c(Cl)c(C)[n+]([O-])c(Cl)c1-c1noc(-c2cc(O)c(O)c([N+](=O)[O-])c2)n1 [polymorph A, 5-[3-(2,5-dichloro-4,6-dimethyl-1-oxy-pyridin-3-yl)-[1,2,4]oxadiazol-5-yl]-3-nitrobenzene-1,2-diol]",thermodynamically stable polymorph,–,–,hygroscopicity [1]: non-hygroscopic
"Cc1c(Cl)c(C)[n+]([O-])c(Cl)c1-c1noc(-c2cc(O)c(O)c([N+](=O)[O-])c2)n1 [polymorph C, 5-[3-(2,5-dichloro-4,6-dimethyl-1-oxy-pyridin-3-yl)-[1,2,4]oxadiazol-5-yl]-3-nitrobenzene-1,2-diol]",–,produced polymorph B,convert into polymorph A or B,–
"Cc1c(Cl)c(C)[n+]([O-])c(Cl)c1-c1noc(-c2cc(O)c(O)c([N+](=O)[O-])c2)n1 [polymorph E, 5-[3-(2,5-dichloro-4,6-dimethyl-1-oxy-pyridin-3-yl)-[1,2,4]oxadiazol-5-yl]-3-nitrobenzene-1,2-diol]",–,produced polymorph A,convert into polymorph A or B,–
"Cc1c(Cl)c(C)[n+]([O-])c(Cl)c1-c1noc(-c2cc(O)c(O)c([N+](=O)[O-])c2)n1 [polymorph B, 5-[3-(2,5-dichloro-4,6-dimethyl-1-oxy-pyridin-3-yl)-[1,2,4]oxadiazol-5-yl]-3-nitrobenzene-1,2-diol]",kinetically stable polymorphs,–,–,polymorphic conversion when slurried in water ([2]; slurried in water containing crystal seeds of modification A over prolonged periods of time): converts into polymorph A
"Cc1c(Cl)c(C)[n+]([O-])c(Cl)c1-c1noc(-c2cc(O)c(O)c([N+](=O)[O-])c2)n1 [polymorph D, 5-[3-(2,5-dichloro-4,6-dimethyl-1-oxy-pyridin-3-yl)-[1,2,4]oxadiazol-5-yl]-3-nitrobenzene-1,2-diol]",–,–,convert into polymorph A or B,–
"Cc1c(Cl)c(C)[n+]([O-])c(Cl)c1-c1noc(-c2cc(O)c(O)c([N+](=O)[O-])c2)n1 [polymorph F, 5-[3-(2,5-dichloro-4,6-dimethyl-1-oxy-pyridin-3-yl)-[1,2,4]oxadiazol-5-yl]-3-nitrobenzene-1,2-diol]",–,–,convert into polymorph A or B,–
